From ChEMBL document CHEMBL3885881, “DrugMatrix”

Species on record: Rattus norvegicus
Test: DrugMatrix - Regimen: Daily Repeat
Format: toxicity, organism-based, Sprague-Dawley
Design: regimen Daily Repeat, gender Male, age 6-8 weeks
Details: in vivo, po, route oral GAVAGE, […]; for ABSOLUTE BASOPHIL / ABSOLUTE EOSINOPHIL / ABSOLUTE LYMPHOCYTE / ABSOLUTE SEGMENTED NEUTROPHIL / BASOPHIL / EOSINOPHIL / ERYTHROCYTE COUNT / HEMATOCRIT / HEMOGLOBIN / LYMPHOCYTE / MEAN CORPUSCULAR HEMOGLOBIN / MEAN CORPUSCULAR HEMOGLOBIN CONCENTRATION / MEAN CORPUSCULAR VOLUME / MONOCYTE / NUCLEATED RED BLOOD CELLS / PLATELET COUNT: tissue Blood; for ALANINE AMINOTRANSFERASE / ALBUMIN / ALKALINE PHOSPHATASE / ASPARTATE AMINOTRANSFERASE / BLOOD UREA NITROGEN / CARBON DIOXIDE / CHOLESTEROL / CREATINE PHOSPHOKINASE / CREATININE / GLUCOSE / LACTATE DEHYDROGENASE / POTASSIUM / SODIUM / TOTAL BILIRUBIN / TOTAL PROTEIN / URIC ACID: tissue Plasma
[1] = 0 mg/kg, 72 h, dose level Control, time 3 day
[2] = 0 mg/kg, 120 h, dose level Control, time 5 day
[3] = 20 mg/kg, 72 h, dose level Low, time 3 day
[4] = 20 mg/kg, 120 h, dose level Low, time 5 day
[5] = 2000 mg/kg, 72 h, dose level High, time 3 day
[6] = 2000 mg/kg, 120 h, dose level High, time 5 day

## COc1ccccc1OCCNCC(O)COc1cccc2[nH]c3ccccc3c12 (configuration not stated) [CARVEDILOL]
[1]
  ABSOLUTE BASOPHIL: 0 CELLS/uL
  ABSOLUTE EOSINOPHIL: 0 CELLS/uL
  ABSOLUTE LYMPHOCYTE: 9244.83 CELLS/uL
  ABSOLUTE SEGMENTED NEUTROPHIL: 869.83 CELLS/uL
  BASOPHIL: 0%
  EOSINOPHIL: 0%
  ERYTHROCYTE COUNT: 5.43 x10E6/uL
  HEMATOCRIT: 34.03%
  HEMOGLOBIN: 13.27 G/DL
  LYMPHOCYTE: 90.33%
  MEAN CORPUSCULAR HEMOGLOBIN: 24.48 pg
  MEAN CORPUSCULAR HEMOGLOBIN CONCENTRATION: 39.03 G/DL
  MEAN CORPUSCULAR VOLUME: 62.75 fL
  MONOCYTE: 1%
  NUCLEATED RED BLOOD CELLS: 0.17 /100WBC
  PLATELET COUNT: 989 x10E3/uL
  ALANINE AMINOTRANSFERASE: 77 u/L
  ALBUMIN: 3.97 G/DL
  ALKALINE PHOSPHATASE: 464.83 u/L
  ASPARTATE AMINOTRANSFERASE: 89.83 u/L
  BLOOD UREA NITROGEN: 12.17 mg/dL
  CARBON DIOXIDE: 34.17 mmol/L
  CHOLESTEROL: 75.17 mg/dL
  CREATINE PHOSPHOKINASE: 367.67 u/L
  CREATININE: 0.16 mg/dL
  GLUCOSE: 142.67 mg/dL
  LACTATE DEHYDROGENASE: 139.33 u/L
  POTASSIUM: 6.38 MEQ/L
  SODIUM: 143.2 MEQ/L
  TOTAL BILIRUBIN: 0.2 mg/dL
  TOTAL PROTEIN: 5.77 G/DL
  URIC ACID: 0.7 mg/dL
[2]
  ABSOLUTE BASOPHIL: 0 CELLS/uL
  ABSOLUTE EOSINOPHIL: 0 CELLS/uL
  ABSOLUTE LYMPHOCYTE: 8295.33 CELLS/uL
  ABSOLUTE SEGMENTED NEUTROPHIL: 970 CELLS/uL
  BASOPHIL: 0%
  EOSINOPHIL: 0%
  ERYTHROCYTE COUNT: 5.74 x10E6/uL
  HEMATOCRIT: 36.22%
  HEMOGLOBIN: 13.85 G/DL
  LYMPHOCYTE: 88.67%
  MEAN CORPUSCULAR HEMOGLOBIN: 24.13 pg
  MEAN CORPUSCULAR HEMOGLOBIN CONCENTRATION: 38.25 G/DL
  MEAN CORPUSCULAR VOLUME: 63.08 fL
  MONOCYTE: 1%
  NUCLEATED RED BLOOD CELLS: 0.17 /100WBC
  PLATELET COUNT: 883.83 x10E3/uL
  ALANINE AMINOTRANSFERASE: 64.5 u/L
  ALBUMIN: 4.12 G/DL
  ALKALINE PHOSPHATASE: 425.67 u/L
  ASPARTATE AMINOTRANSFERASE: 88.5 u/L
  BLOOD UREA NITROGEN: 14.17 mg/dL
  CARBON DIOXIDE: 30.5 mmol/L
  CHOLESTEROL: 55.33 mg/dL
  CREATINE PHOSPHOKINASE: 287.17 u/L
  CREATININE: 0.2 mg/dL
  GLUCOSE: 162.83 mg/dL
  LACTATE DEHYDROGENASE: 111.33 u/L
  POTASSIUM: 5.13 MEQ/L
  SODIUM: 143.93 MEQ/L
  TOTAL BILIRUBIN: 0.17 mg/dL
  TOTAL PROTEIN: 5.9 G/DL
  URIC ACID: 0.77 mg/dL
[3]
  ABSOLUTE BASOPHIL: 0 CELLS/uL
  ABSOLUTE EOSINOPHIL: 67.33 CELLS/uL
  ABSOLUTE LYMPHOCYTE: 15458 CELLS/uL
  ABSOLUTE SEGMENTED NEUTROPHIL: 1844 CELLS/uL
  BASOPHIL: 0%
  EOSINOPHIL: 0.33%
  ERYTHROCYTE COUNT: 5.47 x10E6/uL
  HEMATOCRIT: 34.53%
  HEMOGLOBIN: 13.3 G/DL
  LYMPHOCYTE: 89.33%
  MEAN CORPUSCULAR HEMOGLOBIN: 24.47 pg
  MEAN CORPUSCULAR HEMOGLOBIN CONCENTRATION: 38.5 G/DL
  MEAN CORPUSCULAR VOLUME: 63.47 fL
  MONOCYTE: 0.33%
  NUCLEATED RED BLOOD CELLS: 0 /100WBC
  PLATELET COUNT: 907.33 x10E3/uL
  ALANINE AMINOTRANSFERASE: 76.33 u/L
  ALBUMIN: 4.1 G/DL
  ALKALINE PHOSPHATASE: 486 u/L
  ASPARTATE AMINOTRANSFERASE: 96.67 u/L
  BLOOD UREA NITROGEN: 11 mg/dL
  CARBON DIOXIDE: 32.67 mmol/L
  CHOLESTEROL: 75.67 mg/dL
  CREATINE PHOSPHOKINASE: 501.33 u/L
  CREATININE: 0.24 mg/dL
  GLUCOSE: 131 mg/dL
  LACTATE DEHYDROGENASE: 152.67 u/L
  POTASSIUM: 5.98 MEQ/L
  SODIUM: 145.6 MEQ/L
  TOTAL BILIRUBIN: 0.17 mg/dL
  TOTAL PROTEIN: 5.8 G/DL
  URIC ACID: 0.6 mg/dL
[4]
  ABSOLUTE BASOPHIL: 0 CELLS/uL
  ABSOLUTE EOSINOPHIL: 48 CELLS/uL
  ABSOLUTE LYMPHOCYTE: 6685 CELLS/uL
  ABSOLUTE SEGMENTED NEUTROPHIL: 615 CELLS/uL
  BASOPHIL: 0%
  EOSINOPHIL: 0.67%
  ERYTHROCYTE COUNT: 5.51 x10E6/uL
  HEMATOCRIT: 34.9%
  HEMOGLOBIN: 13.3 G/DL
  LYMPHOCYTE: 90.33%
  MEAN CORPUSCULAR HEMOGLOBIN: 24.17 pg
  MEAN CORPUSCULAR HEMOGLOBIN CONCENTRATION: 38.13 G/DL
  MEAN CORPUSCULAR VOLUME: 63.4 fL
  MONOCYTE: 0.67%
  NUCLEATED RED BLOOD CELLS: 0.33 /100WBC
  PLATELET COUNT: 1008 x10E3/uL
  ALANINE AMINOTRANSFERASE: 58.33 u/L
  ALBUMIN: 3.93 G/DL
  ALKALINE PHOSPHATASE: 439.33 u/L
  ASPARTATE AMINOTRANSFERASE: 81.67 u/L
  BLOOD UREA NITROGEN: 15 mg/dL
  CARBON DIOXIDE: 30.67 mmol/L
  CHOLESTEROL: 57 mg/dL
  CREATINE PHOSPHOKINASE: 167.67 u/L
  CREATININE: 0.13 mg/dL
  GLUCOSE: 153.67 mg/dL
  LACTATE DEHYDROGENASE: 137 u/L
  POTASSIUM: 5.49 MEQ/L
  SODIUM: 144.75 MEQ/L
  TOTAL BILIRUBIN: 0.23 mg/dL
  TOTAL PROTEIN: 5.63 G/DL
  URIC ACID: 0.5 mg/dL
[5]
  ABSOLUTE BASOPHIL: 0 CELLS/uL
  ABSOLUTE EOSINOPHIL: 24.67 CELLS/uL
  ABSOLUTE LYMPHOCYTE: 8554.33 CELLS/uL
  ABSOLUTE SEGMENTED NEUTROPHIL: 841.33 CELLS/uL
  BASOPHIL: 0%
  EOSINOPHIL: 0.33%
  ERYTHROCYTE COUNT: 5.87 x10E6/uL
  HEMATOCRIT: 36.37%
  HEMOGLOBIN: 13.9 G/DL
  LYMPHOCYTE: 88%
  MEAN CORPUSCULAR HEMOGLOBIN: 23.67 pg
  MEAN CORPUSCULAR HEMOGLOBIN CONCENTRATION: 38.23 G/DL
  MEAN CORPUSCULAR VOLUME: 61.93 fL
  MONOCYTE: 1.67%
  NUCLEATED RED BLOOD CELLS: 0 /100WBC
  PLATELET COUNT: 1204 x10E3/uL
  ALANINE AMINOTRANSFERASE: 147 u/L
  ALBUMIN: 3.83 G/DL
  ALKALINE PHOSPHATASE: 433.33 u/L
  ASPARTATE AMINOTRANSFERASE: 253.67 u/L
  BLOOD UREA NITROGEN: 12.33 mg/dL
  CARBON DIOXIDE: 35.67 mmol/L
  CHOLESTEROL: 135.33 mg/dL
  CREATINE PHOSPHOKINASE: 315.33 u/L
  CREATININE: 0.15 mg/dL
  GLUCOSE: 110.33 mg/dL
  LACTATE DEHYDROGENASE: 180 u/L
  POTASSIUM: 4.83 MEQ/L
  SODIUM: 143.43 MEQ/L
  TOTAL BILIRUBIN: 0.27 mg/dL
  TOTAL PROTEIN: 5.7 G/DL
  URIC ACID: 0.7 mg/dL
[6]
  ABSOLUTE BASOPHIL: 0 CELLS/uL
  ABSOLUTE EOSINOPHIL: 92.67 CELLS/uL
  ABSOLUTE LYMPHOCYTE: 7992.67 CELLS/uL
  ABSOLUTE SEGMENTED NEUTROPHIL: 4483.67 CELLS/uL
  BASOPHIL: 0%
  EOSINOPHIL: 0.67%
  ERYTHROCYTE COUNT: 7.13 x10E6/uL
  HEMATOCRIT: 41.5%
  HEMOGLOBIN: 15.4 G/DL
  LYMPHOCYTE: 64.67%
  MEAN CORPUSCULAR HEMOGLOBIN: 21.77 pg
  MEAN CORPUSCULAR HEMOGLOBIN CONCENTRATION: 37.27 G/DL
  MEAN CORPUSCULAR VOLUME: 58.43 fL
  MONOCYTE: 1.67%
  NUCLEATED RED BLOOD CELLS: 0 /100WBC
  PLATELET COUNT: 1163.67 x10E3/uL
  ALANINE AMINOTRANSFERASE: 380 u/L
  ALBUMIN: 3.27 G/DL
  ALKALINE PHOSPHATASE: 444.33 u/L
  ASPARTATE AMINOTRANSFERASE: 620.33 u/L
  BLOOD UREA NITROGEN: 39.33 mg/dL
  CARBON DIOXIDE: 27 mmol/L
  CHOLESTEROL: 132.33 mg/dL
  CREATINE PHOSPHOKINASE: 3005.33 u/L
  CREATININE: 0.42 mg/dL
  GLUCOSE: 124 mg/dL
  LACTATE DEHYDROGENASE: 673.67 u/L
  POTASSIUM: 6.23 MEQ/L
  SODIUM: 138.53 MEQ/L
  TOTAL BILIRUBIN: 0.4 mg/dL
  TOTAL PROTEIN: 5.33 G/DL
  URIC ACID: 1.5 mg/dL
